Measurements from PMC11784183, “Identification of an antibiotic from an HTS targeting EF-Tu:tRNA interaction: a prospective topical treatment for MRSA skin infections” (Applied and Environmental Microbiology, 2024).

Settings: mouse, in vivo, ip, 10 mg/kg

Compound: CC[C@@H]1Cc2cc(O)ccc2C2=C1c1ccc(O)cc1C[C@H]2CC [MGC-10]
- passage of the blood brain barrier: did not pass the blood brain barrier
